Key:
[1] = target: T1, TsA (L-asparaginase from Thermococcus sibiricus) (Thermococcus sibiricus, UniProt C6A532); experiment: direct Nesslerization (ammonia release); format: biochemical; conditions: 90 °C, Tris-HCl 0.05 M pH 9.0 (b36 says same conditions as mutant)
T1 construct: gene TSIB_1676

[2] = substrate: NC(=O)C[C@H](N)C(=O)O; experiment: direct Nesslerization (ammonia release); format: biochemical, Thermococcus sibiricus; conditions: 90 °C, glycine-NaOH 0.01 M pH 9.3, printed substrate range 20-250 μM

T1 sequence (C6A532 entry or part of it): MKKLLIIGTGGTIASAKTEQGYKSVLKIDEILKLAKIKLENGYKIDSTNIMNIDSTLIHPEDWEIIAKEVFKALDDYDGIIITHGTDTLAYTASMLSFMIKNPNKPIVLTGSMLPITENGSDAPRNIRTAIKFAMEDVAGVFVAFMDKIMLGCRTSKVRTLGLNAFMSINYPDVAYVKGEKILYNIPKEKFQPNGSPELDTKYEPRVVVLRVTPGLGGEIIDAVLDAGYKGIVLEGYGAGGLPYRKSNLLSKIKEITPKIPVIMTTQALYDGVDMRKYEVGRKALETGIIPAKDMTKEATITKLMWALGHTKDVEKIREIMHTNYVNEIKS

Molecule | Km [1] [µM] | Km [2] [µM]
NC(=O)C[C@H](N)C(=O)O [L-asparagine] | 3000 | 
TsA (L-asparaginase from Thermococcus sibiricus) (Thermococcus sibiricus MM 739; D54G/T56Q) (protein) MKKLLIIGTGGTIASAKTEQGYKSVLKIDEILKLAKIKLENGYKIDSTNIMNIGSQLIHPEDWEIIAKEVFKALDDYDGIIITHGTDTLAYTASMLSFMIKNPNKPIVLTGSMLPITENGSDAPRNIRTAIKFAMEDVAGVFVAFMDKIMLGCRTSKVRTLGLNAFMSINYPDVAYVKGEKILYNIPKEKFQPNGSPELDTKYEPRVVVLRVTPGLGGEIIDAVLDAGYKGIVLEGYGAGGLPYRKSNLLSKIKEITPKIPVIMTTQALYDGVDMRKYEVGRKALETGIIPAKDMTKEATITKLMWALGHTKDVEKIREIMHTNYVNEIKS |  | 6000
